{"source": "paper PMC8401132", "about": "(Molecules, 2021)", "key": {"[1]": {"experiment": "Cu(II)/metformin complex formation constants by combined potentiometric-Vis titration", "format": "physicochemical", "settings": "0.1 M KCl, 25.0 °C, [L] = 4 mM, [Cu^2+] = 2 mM, potentiometry/Vis", "procedure": "Protonation and complex-formation equilibrium studies were carried out under the same conditions described in previous publications. […]. Combined potentiometric–spectrophotometric measurements were performed for protonation equilibria in the 200–400 nm spectral range and in the 400–800 nm spectral range for copper (II) complexes, using 0.2 and 1 cm path lengths, respectively. Protonation and complex formation data were analyzed using the Hyperquad and HypSpec2014 program."}, "[2]": {"system": "SW1222 cells", "experiment": "CellTiter-Glo ATP cell viability/proliferation, SW1222", "format": "cell-based, human", "procedure": "(§1) SW1222 were cultured in DMEM (Gibco, New York, NY, USA) media supplemented with 10% fetal bovine serum (FBS) (Gibco, New York, NY, USA) and 1% penicillin/streptomycin (Gibco, USA). Both K562 and K562/Adr200 were cultured in RPMI media (Gibco, New York, NY, USA) supplemented with 10% FBS and 1% penicillin/streptomycin. The seeding density for all the three cell lines was 1000 cells per well in 96 wells plates. […] From this experiment, the effective concentration that inhibited the growth of ≥50% of the cells was determined. […] Both metformin and copper sulfate were prepared in sterile nuclease-free water, then added to the media. The cells were maintained in culture for 72 h before any further assessments were done. […] A control sample of untreated cells was included in all experiments. […] The CellTiter-Glo® luminescent cell viability assay was used to determine levels of ATP release from each cell line after 72 h, according to manufacturer’s instructions."}, "[3]": {"system": "K562 cells", "experiment": "CellTiter-Glo ATP cell viability/proliferation, K562", "format": "cell-based, human", "settings": "for IC50: Homo sapiens, K562, 72 h, K562, ATP release; for IC50 / Normalized ATP percentage: 72 h", "procedure": "as §1"}, "[4]": {"system": "K562-200 (K562/Adr200) cells", "experiment": "CellTiter-Glo ATP cell viability/proliferation, K562-200", "format": "cell-based, human", "settings": "for IC50: K562-200, ATP release, 72 h", "procedure": "as §1"}, "[5]": {"system": "SW1222 cells", "experiment": "Actin stress fiber staining and morphology, SW1222", "format": "cell-based, human", "settings": "SW1222, 15 mM and 50 mM metformin, 72 h", "procedure": "(§2) To assess the effects on actin stress fiber organization and cell morphology, rhodamine phalloidin was used. Cells were fixed in 4% paraformaldehyde 72 h post-treatment. Cells were permeabilized for 5 min in prechilled 0.5% Triton × 100, 3 mM MgCl2, and 300 mM sucrose, followed by washing with 1× DPBS. A blocking buffer composed of 5% fetal bovine serum (FBS), 0.1% Tween 20, and 0.02% sodium azide was then added to the cells for 30 min. Rhodamine phalloidin was incubated for one hour after removing and discarding the blocking buffer. Cells were subsequently washed with 1× PBS, and DAPI was added for nucleic acid staining prior to fluorescence imaging."}, "[6]": {"system": "K562 cells", "experiment": "Actin stress fiber staining, K562", "format": "cell-based, human", "settings": "K562, 72 h", "procedure": "as §2"}, "[7]": {"system": "K562-200 cells", "experiment": "Actin stress fiber staining, K562-200", "format": "cell-based, human", "settings": "K562-200, 72 h", "procedure": "as §2"}, "[8]": {"settings": "potentiometry, cited from earlier work"}, "[9]": {"parameters": "method as in PMID 21168988", "settings": "NMR, literature data ref 39; cited from earlier work"}, "[10]": {"settings": "potentiometry, cited from earlier work", "remark": "listed apart in the source"}, "[11]": {"system": "human gastric cancer AGS cells", "settings": "20 mM for 12 h ref 56; cited from earlier work"}, "[12]": {"system": "normal colon CCD 841 CoN cells", "settings": "10–50 mM for 48 h ref 56; cited from earlier work"}, "[13]": {"system": "embryonic lung HEL 299 cells", "settings": "10–50 mM for 48 h ref 56; cited from earlier work"}, "[14]": {"system": "293 cells", "settings": "10–50 mM for 48 h ref 56; cited from earlier work"}, "[15]": {"settings": "patients with diabetes, observational study published in 2005 ref 13; cited from earlier work"}, "[16]": {"settings": "T2DM / diabetic patients ref 57; cited from earlier work"}}, "note": "Like-named read-outs stand apart in the source and are kept apart here."}
{"compound": "CN(C)C(=N)N=C(N)N", "note": "[metformin, 3-(diaminomethylidene)-1,1-dimethylguanidine]", "values": [{"measurement": "Logβ CuL2", "setting": "[1]", "result": "22.20(7)"}, {"measurement": "Logβ CuL2H", "setting": "[1]", "result": "28.3(1)"}, {"measurement": "Logβ CuLH", "setting": "[1]", "result": "17.87(5)"}, {"measurement": "IC50", "setting": "[2]; Homo sapiens, SW1222, ATP release, 72 h", "result": 15.6, "unit": "mM"}, {"measurement": "IC50", "setting": "[3]", "result": 851, "unit": "µM"}, {"measurement": "IC50", "setting": "[3]; as in Figure 7B legend", "result": "~1000", "unit": "µM"}, {"measurement": "Normalized ATP percentage", "setting": "[3]; K562, 10 mM metformin", "result": 35.2, "unit": "%"}, {"measurement": "IC50", "setting": "[4]; Homo sapiens, K562, 72 h", "result": 63.1, "unit": "µM"}, {"measurement": "IC50", "setting": "[4]", "result": 63, "unit": "µM"}, {"measurement": "Cell shrinkage and rounding", "setting": "[5]", "result": "dramatically increased"}, {"measurement": "Lowest concentration showing loss of actin stress fibers", "setting": "[6]", "result": 1, "unit": "mM"}, {"measurement": "Lowest concentration showing loss of actin stress fibers", "setting": "[7]", "result": 20, "unit": "µM"}, {"measurement": "Protonation constant LH", "setting": "[8]; literature data ref 37", "result": "11.02 [37]"}, {"measurement": "Protonation constant LH2", "setting": "[8]; literature data ref 37", "result": "2.79 [37]"}, {"measurement": "Protonation constant LH", "setting": "[8]; literature data ref 38", "result": "11.10 [38]"}, {"measurement": "Protonation constant LH2", "setting": "[8]; literature data ref 38", "result": "2.90 [38]"}, {"measurement": "Protonation constant LH", "setting": "[9]", "result": "13.8 [39]"}, {"measurement": "Protonation constant LH2", "setting": "[9]", "result": "3.1 [39]"}, {"measurement": "LogK CuL", "setting": "[10]; literature data ref 38", "result": "8.59 [38]"}, {"measurement": "LogK CuL2", "setting": "[10]; literature data ref 38", "result": "6.35 [38]"}, {"measurement": "LogK CuL", "setting": "[10]; literature data ref 42", "result": "7.17 [42]"}, {"measurement": "LogK CuL2", "setting": "[10]; literature data ref 42", "result": "5.13 [42]"}, {"measurement": "Effect on cell viability", "setting": "[11]", "result": "significantly reduced cell viability"}, {"measurement": "Effect on viability", "setting": "[12]", "result": "no significant effect"}, {"measurement": "Effect on viability", "setting": "[13]", "result": "no significant effect"}, {"measurement": "Effect on viability", "setting": "[14]", "result": "no significant effect"}, {"measurement": "Decrease in cancer risk with metformin use", "setting": "[15]", "result": 23, "unit": "%"}, {"measurement": "Plasma concentration", "setting": "[16]", "result": "~20", "unit": "µM"}]}
{"compound": "O=S(=O)([O-])[O-].[Cu+2]", "note": "[Cu(II), copper (II) sulfate]", "values": [{"measurement": "Inhibition of cell proliferation (% of the cells)", "setting": "[2]; SW1222, 400 µM Cu(II), absence of metformin", "result": "≥ 50", "unit": "%"}, {"measurement": "Effect on cells", "setting": "[2]; SW1222, 5 mM Cu(II), regardless of metformin concentration", "result": "almost all cells died"}, {"measurement": "Inhibition of cell proliferation (% of the cells)", "setting": "[3]; K562, 400 µM Cu(II), absence of metformin", "result": "≥ 50", "unit": "%"}, {"measurement": "Normalized ATP percentage", "setting": "[3]; K562, 400 µM Cu(II), no metformin", "result": 47.2, "unit": "%"}, {"measurement": "Effect on cells", "setting": "[3]; K562, 5 mM Cu(II), regardless of metformin concentration", "result": "almost all cells died"}, {"measurement": "Inhibition of cell proliferation (% of the cells)", "setting": "[4]; K562-200, 400 µM Cu(II), absence of metformin", "result": "≥ 50", "unit": "%"}, {"measurement": "Effect on cells", "setting": "[4]; K562-200, 5 mM Cu(II), regardless of metformin concentration", "result": "almost all cells died"}]}
